Patent US12503438B2, “Compounds for the treatment of kinase-dependent disorders” (Exelixis, Inc., priority 2019, dated 2025)
pIC50: −log10 of the molar value.

Legend:
KDR = KDR (Homo sapiens, UniProt P35968); test: KDR autophosphorylation ELISA in HUVEC cells; type: cell-based; design: endogenous in cells; host or cells: HUVEC (Lonza #C2519A); conditions: cellular activity, VEGF165-stimulated, phospho-KDR ELISA
Procedure, shortened: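 HUVECs grown 24 h at 37 °C, then serum-starved 24 h, were preincubated 1 h with an 8-point compound series (0.3% DMSO) and stimulated with 100 ng/mL human VEGF165 for 5 min. Phospho-KDR in lysates was measured by sandwich ELISA against a phospho-KDR standard; IC50 from 4-parameter logistic fit.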

Human Axl = target: T1, Human Axl (Homo sapiens, UniProt P30530, Q764R); test: Human AXL kinase assay (33P-phosphoryl transfer radiometric, KinaseProfiler); conditions: biochemical activity; 10 μM ATP
T1 construct: Human Axl (residues H473-A894 with Q764R, 161 nM); purchased Eurofins Pharma Discovery Services UK Limited (KinaseProfiler service)
T1 sequence (P30530 473-894 Q764R): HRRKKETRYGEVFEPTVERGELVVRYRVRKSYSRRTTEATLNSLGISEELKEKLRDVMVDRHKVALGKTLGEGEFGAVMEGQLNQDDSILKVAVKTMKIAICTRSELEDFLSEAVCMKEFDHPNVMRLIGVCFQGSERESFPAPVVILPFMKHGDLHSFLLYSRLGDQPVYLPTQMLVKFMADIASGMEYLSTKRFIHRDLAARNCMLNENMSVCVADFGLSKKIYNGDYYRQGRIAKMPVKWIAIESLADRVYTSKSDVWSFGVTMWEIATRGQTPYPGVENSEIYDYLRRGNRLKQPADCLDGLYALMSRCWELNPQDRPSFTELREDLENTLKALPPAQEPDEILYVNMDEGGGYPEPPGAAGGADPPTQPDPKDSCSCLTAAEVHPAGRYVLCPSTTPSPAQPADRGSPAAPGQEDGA

Met = Met (Homo sapiens, UniProt P08581); test: Met autophosphorylation ELISA in PC-3 cells; type: cell-based; design: endogenous in cells; host or cells: PC-3 prostate cancer cells (ATCC #CRL-1435); conditions: cellular activity, HGF-stimulated, phospho-Met ELISA, read-out: c-Met IC50
Procedure, shortened: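 Phospho-Met (panTyr) sandwich ELISA on lysates of PC-3 cells given 100 ng/mL HGF for 10 min after 1 h compound exposure (8-point curve, 0.3% DMSO) following 3 h serum starvation. Normalised to HGF-stimulated DMSO and reference-inhibitor wells; 4-parameter logistic IC50.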

Chain of Met (P08581 25-1390): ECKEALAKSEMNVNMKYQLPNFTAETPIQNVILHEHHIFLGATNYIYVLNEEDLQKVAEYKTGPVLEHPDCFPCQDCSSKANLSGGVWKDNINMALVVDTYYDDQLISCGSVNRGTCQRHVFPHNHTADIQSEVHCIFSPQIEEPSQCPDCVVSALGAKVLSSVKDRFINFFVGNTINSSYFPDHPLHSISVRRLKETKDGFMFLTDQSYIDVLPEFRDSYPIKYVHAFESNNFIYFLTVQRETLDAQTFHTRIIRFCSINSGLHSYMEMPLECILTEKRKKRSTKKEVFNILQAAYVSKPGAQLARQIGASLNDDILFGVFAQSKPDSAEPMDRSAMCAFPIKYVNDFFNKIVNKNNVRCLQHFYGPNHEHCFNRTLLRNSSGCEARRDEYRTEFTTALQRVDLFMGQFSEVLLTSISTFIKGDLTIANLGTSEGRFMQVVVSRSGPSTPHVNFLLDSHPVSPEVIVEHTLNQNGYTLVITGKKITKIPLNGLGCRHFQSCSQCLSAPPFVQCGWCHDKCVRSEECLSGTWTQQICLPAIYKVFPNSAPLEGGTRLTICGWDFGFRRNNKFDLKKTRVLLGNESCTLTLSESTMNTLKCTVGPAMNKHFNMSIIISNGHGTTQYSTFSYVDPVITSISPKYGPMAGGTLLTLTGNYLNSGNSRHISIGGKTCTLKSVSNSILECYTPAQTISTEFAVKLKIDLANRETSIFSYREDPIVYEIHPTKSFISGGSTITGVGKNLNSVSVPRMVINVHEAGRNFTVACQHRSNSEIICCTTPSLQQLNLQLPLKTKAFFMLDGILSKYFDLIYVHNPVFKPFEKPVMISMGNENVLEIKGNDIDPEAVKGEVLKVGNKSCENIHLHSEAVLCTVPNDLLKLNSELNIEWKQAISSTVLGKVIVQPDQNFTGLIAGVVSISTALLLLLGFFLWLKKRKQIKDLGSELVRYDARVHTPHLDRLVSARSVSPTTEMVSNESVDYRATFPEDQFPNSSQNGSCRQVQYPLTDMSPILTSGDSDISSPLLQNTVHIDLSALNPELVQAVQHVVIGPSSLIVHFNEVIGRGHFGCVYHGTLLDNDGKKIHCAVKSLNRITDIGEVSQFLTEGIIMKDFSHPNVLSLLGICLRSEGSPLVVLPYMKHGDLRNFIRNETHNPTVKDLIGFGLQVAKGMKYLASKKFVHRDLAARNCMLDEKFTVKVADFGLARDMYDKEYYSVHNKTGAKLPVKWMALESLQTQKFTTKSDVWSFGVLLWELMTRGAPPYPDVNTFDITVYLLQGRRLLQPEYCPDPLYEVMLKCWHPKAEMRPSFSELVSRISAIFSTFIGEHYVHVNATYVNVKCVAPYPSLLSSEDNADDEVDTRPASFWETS
Chain of KDR (P35968 20-1356): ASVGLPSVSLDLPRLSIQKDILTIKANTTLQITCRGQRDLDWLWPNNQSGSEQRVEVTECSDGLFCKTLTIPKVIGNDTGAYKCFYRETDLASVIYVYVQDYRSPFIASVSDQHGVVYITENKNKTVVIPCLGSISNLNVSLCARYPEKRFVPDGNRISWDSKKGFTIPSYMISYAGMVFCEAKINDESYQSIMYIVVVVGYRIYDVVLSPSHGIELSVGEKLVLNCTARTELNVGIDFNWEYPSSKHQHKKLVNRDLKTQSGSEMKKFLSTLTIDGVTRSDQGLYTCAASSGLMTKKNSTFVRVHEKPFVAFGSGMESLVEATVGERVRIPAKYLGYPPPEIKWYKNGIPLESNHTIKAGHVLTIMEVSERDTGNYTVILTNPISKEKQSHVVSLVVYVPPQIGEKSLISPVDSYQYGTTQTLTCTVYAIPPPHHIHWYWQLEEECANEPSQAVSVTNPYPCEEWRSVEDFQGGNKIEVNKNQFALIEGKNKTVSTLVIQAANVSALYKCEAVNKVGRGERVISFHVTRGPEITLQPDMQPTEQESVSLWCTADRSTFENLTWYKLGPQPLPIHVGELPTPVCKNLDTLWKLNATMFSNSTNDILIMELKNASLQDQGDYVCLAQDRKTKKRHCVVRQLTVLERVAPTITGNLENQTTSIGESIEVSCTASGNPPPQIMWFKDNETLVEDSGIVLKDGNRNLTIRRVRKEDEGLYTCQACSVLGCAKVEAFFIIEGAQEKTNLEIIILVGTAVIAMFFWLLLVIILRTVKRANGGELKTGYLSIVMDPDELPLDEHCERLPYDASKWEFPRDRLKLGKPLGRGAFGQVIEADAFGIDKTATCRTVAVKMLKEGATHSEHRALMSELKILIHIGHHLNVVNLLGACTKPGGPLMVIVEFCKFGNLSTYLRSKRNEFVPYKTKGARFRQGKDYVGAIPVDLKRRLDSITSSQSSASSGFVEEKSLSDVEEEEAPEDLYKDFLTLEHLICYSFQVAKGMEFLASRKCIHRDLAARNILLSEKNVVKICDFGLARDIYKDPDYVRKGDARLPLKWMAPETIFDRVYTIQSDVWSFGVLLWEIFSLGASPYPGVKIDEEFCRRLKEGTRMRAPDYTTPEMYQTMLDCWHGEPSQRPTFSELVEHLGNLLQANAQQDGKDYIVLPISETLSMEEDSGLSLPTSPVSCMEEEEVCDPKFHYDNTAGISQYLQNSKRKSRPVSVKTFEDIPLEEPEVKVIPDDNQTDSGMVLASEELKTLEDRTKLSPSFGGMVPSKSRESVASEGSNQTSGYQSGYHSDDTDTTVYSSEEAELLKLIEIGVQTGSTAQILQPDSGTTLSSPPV

Row | pIC50 (KDR) | pIC50 (Human Axl) | pIC50 (Met) | SMILES
1 | 7.00 to 8.00 | ≥ 8.00 | 7.00 to 8.00 | CN1CCC(n2cc(-c3ccc4c(Oc5ccc(NC(=O)C6(C(=O)Nc7ccc(F)cc7)CC6)cc5)ccnc4c3)cn2)CC1 [Compound 61, 1-N′-(4-Fluorophenyl)-1-N-[4-[7-[1-(1-methylpiperidin-4-yl)pyrazol-4-yl]quinolin-4-yl]oxyphenyl]cyclopropane-1,1-dicarboxamide]
2 | 6.52 to 7.00 | 6.00 to 7.00 | 6.52 to 7.00 | Cc1noc(C)c1-c1ccc2c(Oc3ccc(NC(=O)C4(C(=O)Nc5ccc(F)cc5)CC4)cc3)ccnc2c1 [Compound 53, 1-N-[4-[7-(3,5-Dimethyl-1,2-oxazol-4-yl)quinolin-4-yl]oxyphenyl]-1-N′-(4-fluorophenyl)cyclopropane-1,1-dicarboxamide]
3 | 7.00 to 8.00 | ≥ 8.00 | 7.00 to 8.00 | O=C(Nc1ccc(F)cc1)C1(C(=O)Nc2ccc(Oc3ccnc4cc(-c5cncnc5)ccc34)cc2)CC1 [Compound 27, 1-N′-(4-Fluorophenyl)-1-N-[4-(7-pyrimidin-5-ylquinolin-4-yl)oxyphenyl]cyclopropane-1,1-dicarboxamide]
4 | < 6.52 | 7.00 to 8.00 | 6.52 to 7.00 | Cc1cc(F)cc(C)c1NC(=O)C1(C(=O)Nc2ccc(Oc3ccnc4cc(-c5cnn(C)c5)ccc34)cc2)CC1 [Compound 82, 1-N′-(4-Fluoro-2,6-dimethylphenyl)-1-N-[4-[7-(1-methylpyrazol-4-yl)quinolin-4-yl]oxyphenyl]cyclopropane-1,1-dicarboxamide]

More lines, now with the values behind:

Row | SMILES | pIC50 (KDR) | pIC50 (Human Axl) | pIC50 (Met)
5 | O=C(Nc1ccc(F)cc1)C1(C(=O)Nc2ccc(Oc3ccnc4cc(-c5cnn(C(F)(F)F)c5)ccc34)cc2)CC1 [Compound 12, 1-N′-(4-Fluorophenyl)-1-N-[4-[7-[1-(trifluoromethyl)pyrazol-4-yl]quinolin-4-yl]oxyphenyl]cyclopropane-1,1-dicarboxamide] | 7.00 to 8.00 | 7.00 to 8.00 | 7.00 to 8.00
6 | Cn1ccc(-c2ccc3c(Oc4ccc(NC(=O)C5(C(=O)Nc6ccc(F)cc6)CC5)cc4)ccnc3c2)n1 [Compound 17, 1-N′-(4-Fluorophenyl)-1-N-[4-[7-(1-methylpyrazol-3-yl)quinolin-4-yl]oxyphenyl]cyclopropane-1,1-dicarboxamide] | ≥ 8.00 | 7.00 to 8.00 | 7.00 to 8.00
7 | O=C(Nc1ccc(F)cc1)C1(C(=O)Nc2ccc(Oc3ccnc4cc(-c5cnn(C6CC6)c5)ccc34)cc2)CC1 [Compound 22, 1-N-[4-[7-(1-Cyclopropylpyrazol-4-yl)quinolin-4-yl]oxyphenyl]-1-N′-(4-fluorophenyl)cyclopropane-1,1-dicarboxamide] | 7.00 to 8.00 | 7.00 to 8.00 | 7.00 to 8.00
